Laboratory results published in PMC10846240, “Pharmacokinetic/pharmacodynamic integration of amphenmulin: a novel pleuromutilin derivative against Mycoplasma gallisepticum” (Microbiology Spectrum, 2023).
≈ marks a conversion by molar mass, not a printed value. Where “and” joins values, the source holds several entries; their conditions need not be identical. Identical values can stand only once. Like-named read-outs stand apart in the source and are kept apart here.

Assays:
[1] = set-up: method as in PMID 32079232; conditions: mice; cited from earlier work
[2] = tested on: M. gallisepticum strain S6; assay: Static time-kill curves and Sigmoid Emax fit of kill rate; assay type: cell-based, Mycoplasma gallisepticum; conditions: for EC50: Mycoplasmoides gallisepticum, read-out: EC50 (concentration at half-maximal kill rate); for decrease of mycoplasma counts / type of effect: static; for decrease of mycoplasma counts: within 48 h
Protocol: Based on the MIC value from broth microdilution method, 7 mL blank medium, 0.2 mL amphenmulin solution, and 0.8 mL M. gallisepticum suspension were taken into 10-mL Celine bottles to make the final mycoplasma count of 10^7 CFU/mL, as well as final concentrations of amphenmulin of 1, 2, 4, 6, 8, 16, 32, and 64 MIC, respectively. Growth control (without drug) and negative control (blank medium) were also set up for culture. Then at 0, 6, 9, 12, 24, 36, and 48 h, 100 µL of each culture was taken for counting using the aforementioned method, with a lower limit of 100 CFU/mL. The experiment was repeated three times.
The efficacy of amphenmulin against M. gallisepticum was measured by the kill rate per unit of time. Considering the growth of M. gallisepticum observed in preliminary experiments, this study selected seven time periods of 0–24, 0–36, 0–48, 6–24, 6–36, 6–48, and 12–48 h to calculate the kill rates of amphenmulin. The Sigmoid Emax model in Phoenix was used to fit the relationship between mean kill rate and drug concentration, which is shown below:
E, kill rate of amphenmulin against M. gallisepticum within a period; E0, change rate of M. gallisepticum in the control group (without drug); Emax, maximum kill rate within a period; Ce, concentration of amphenmulin; EC50, drug concentration at half-maximal kill rate; N, Hill coefficient, reflecting the slope of the kill rate–concentration curve.

[3] = In vivo pharmacokinetics of amphenmulin in chickens (IV, IM, PO); conditions: for Cmax: mean ± SD, n = 10; for bioavailability: read-out: F (absolute bioavailability)
Protocol: The M. gallisepticum standard strain S6 was obtained from the National Center for Veterinary Culture Collection (Beijing, China). Amphenmulin (98%) was synthesized by our laboratory according to the published methods ([10]). Acetonitrile and all other liquid chemicals used were purchased from Macklin Biochemical Technology Co., Ltd (Shanghai, China). M. gallisepticum in this study was cultured under standard conditions of 37°C with the following nutrients: swine serum, M. gallisepticum artificial medium base from Qingdao Hope Biological Technology Co., Ltd (Qingdao, China), nicotinamide adenine dinucleotide (NADH) and cysteine from Aladdin Biochemical Technology Co., Ltd (Shanghai, China). Thirty healthy adult yellow-feathered broilers weighing 1.58 to 2.04 kg were used in this study, caged, fed without antibiotics and anticoccidial drugs, and watered and fed ad libitum. All animal experimental procedures were approved by the Animal Ethics Committee of South China Agricultural University (Approval number: 2023a015).
In this study, the dose design for the administration of amphenmulin was mainly based on the previous study report on tiamulin ([15]). The chickens were randomly divided into three groups (10 per group) and given a single dose of 20 mg/kg of body weight (bw.) of amphenmulin via intravenous, intramuscular injection, and oral gavage, respectively. Blood samples were collected from the brachial wing vein of each chicken at 0, 5, 10, 15, 30, 45 min, 1, 2, 3, 4, 6, 8, 10, 12, 24 h after intravenous injection, and at 0, 3, 6, 9, 12, 20, […], 45 min, 1, 2, 4, 8, 12, 24 h after oral and intramuscular administrations. The blood samples were centrifuged at 3,500 rpm for 10 min. The plasma was collected and stored at −20°C until analysis.
After the plasma samples were restored to room temperature, 200 µL was taken and vortexed with 800 µL of acetonitrile, centrifuged at 12,000 rpm for 10 min. The supernatant was filtered through a 0.22-µm filter and analyzed using a high-performance liquid chromatography-tandem mass spectrometry (HPLC-MS/MS) system (Agilent 1200 HPLC and Applied Biosystem API4000 mass spectrometer, ABI Sciex, USA). Amphenmulin was separated on a C18 column (150 mm × 2 mm, 5 µm) at a flow rate of 0.5 mL/min, with a mobile phase of 0.1% aqueous formic acid and acetonitrile (40:60, vol/vol). The electrospray ionization (ESI) source of the mass spectrometer was operated in positive ion mode for multi-reaction monitoring, with the following ion source parameters: ion spray voltage 4,500 V, collision gas 5 psi, ion source gas1 50 psi, ion source gas2 55 psi, curtain gas 20 psi, source temperature 400°C.
Additionally, the plasma concentration–time data of amphenmulin in each individual were further analyzed using the non-compartmental method in Phoenix 8.1 (Certara, USA) to calculate pharmacokinetic parameters, in which the area under the curve (AUC) was calculated using the log-linear trapezoidal method, and the results were reported as mean ± standard deviation (SD).

[4] = set-up: method as in PMID 29722184, PMID 32079232; conditions: cited from earlier work
[5] = yellow-feathered broilers, plasma, 20 mg/kg bw., IM
[6] = yellow-feathered broilers, plasma, 20 mg/kg bw., IV
[7] = yellow-feathered broilers, plasma, 20 mg/kg bw., PO

C=C[C@]1(C)C[C@@H](OC(=O)CSc2ccccc2N)[C@]2(C)[C@H](C)CC[C@]3(CCC(=O)[C@H]32)[C@@H](C)[C@@H]1O [amphenmulin, 22-(2-amino-phenylsulfanyl)-22-deoxypleuromutilin]
oral bioavailability [1]: 13.65%
EC50 ([2]; S6, period 0–24 h): 0.0325 µg/mL (≈ 0.0669 µM)
EC50 ([2]; S6, period 0–36 h): 0.0914 µg/mL (≈ 0.188 µM)
EC50 ([2]; S6, period 0–48 h): 0.913 µg/mL (≈ 1.88 µM)
EC50 ([2]; S6, period 6–24 h): 0.0082 µg/mL (≈ 0.0169 µM)
EC50 ([2]; S6, period 6–36 h): 0.0053 µg/mL (≈ 0.0109 µM)
EC50 ([2]; S6, period 6–48 h): 0.0526 µg/mL (≈ 0.108 µM)
EC50 ([2]; S6, period 12–48 h): 0.524 µg/mL (≈ 1.08 µM)
Emax (maximum kill rate) ([2]; period 0–24 h): 0.1261 h⁻¹
Emax (maximum kill rate) ([2]; period 0–36 h): 0.1817 h⁻¹
Emax (maximum kill rate) ([2]; period 0–48 h): 0.3277 h⁻¹
Emax (maximum kill rate) ([2]; period 6–24 h): 0.0805 h⁻¹
Emax (maximum kill rate) ([2]; period 6–36 h): 0.0821 h⁻¹
Emax (maximum kill rate) ([2]; period 6–48 h): 0.1743 h⁻¹
Emax (maximum kill rate) ([2]; period 12–48 h): 0.2880 h⁻¹
decrease of mycoplasma counts ([2]; 1 MIC): 0.44 Log10CFU/mL
type of effect ([2]; 2–32 MIC): bacteriostatic effect
decrease of mycoplasma counts ([2]; 2–32 MIC): 0.57–2.7 Log10CFU/mL
type of effect ([2]; 64 MIC): bactericidal effect
decrease of mycoplasma counts ([2]; 64 MIC): 3.85 Log10CFU/mL
T1/2Ke ([3]; 20 mg/kg bw., IM): 5.50 ± 1.43 h
T1/2Ke ([3]; 20 mg/kg bw., IV, 20 mg/kg): 2.13 h and 2.13 ± 0.63 h
T1/2Ke ([3]; 20 mg/kg bw., PO): 2.60 ± 0.87 h
oral absorption rate constant (Ka) ([3]; oral, residual method): approximately 3.15 1/h
Tmax ([3]; yellow-feathered broilers, chicken, plasma, other: oral and intramuscular, 20 mg/kg bw., two extravascular routes (oral and intramuscular), read-out: time to peak levels after administration): < 0.5 h
AUC(0-inf) [3, 5]: 9850 ± 2720 ng·h/mL
AUC(0-t) [3, 5]: 9160 ± 2650 ng·h/mL
MRT [3, 5]: 7.89 ± 2.75 h
k el [3, 5]: 3.61e-05 s⁻¹
Cmax [3, 5]: 1930 ± 480 ng/mL
bioavailability [3, 5]: 52.1%
Tmax ([3]; yellow-feathered broilers, plasma, 20 mg/kg bw., IM, read-out: Tmax): 0.38 ± 0.2 h
AUC(0-inf) [3, 6]: 18900 ± 6030 ng·h/mL
AUC(0-t) [3, 6]: 18800 ± 6090 ng·h/mL
MRT [3, 6]: 3.13 ± 1.05 h
clearance [3, 6]: 19.5 mL/min/kg
k el [3, 6]: 9.72e-05 s⁻¹
Vd ([3]; yellow-feathered broilers, plasma, 20 mg/kg bw., IV, read-out: Vss): 3.64 ± 1.58 L/kg
AUC(0-inf) [3, 7]: 1110 ± 430 ng·h/mL
AUC(0-t) [3, 7]: 1060 ± 400 ng·h/mL
MRT [3, 7]: 2.98 ± 1.05 h
k el [3, 7]: 8.06e-05 s⁻¹
Cmax [3, 7]: 730 ± 360 ng/mL
bioavailability [3, 7]: 5.88%
Tmax ([3]; yellow-feathered broilers, plasma, 20 mg/kg bw., PO, read-out: Tmax): 0.25 ± 0.11 h
acute toxicity [4]: practically non-toxic
